# Assay results reported in patent publication US20190285619A1, “VIRUS INFECTION MODEL, PREPARATION METHOD THEREFOR, AND UTILIZATION THEREOF” (priority 2015, published 2019).
# System: HBV
# Assay: Inhibition of HBV infection of human liver buds by drugs (intracellular HBV 3.5k RNA and HBV DNA in culture supernatant)
# Format: cell-based
# Conditions: HBV 5,000 copies per cell, cultured for 10 days, FIG. 8, vs Con
# Experimental: The endodermal cells obtained, vascular endothelial cells (human umbilical vein-derived endothelial cells) (Lonza, Basel, Switzerland) and undifferentiated mesenchymal cells (human bone marrow-derived mesenchymal stem cells) (Lonza, Basel, Switzerland) were mixed at 10:7:1 (400 cells: 280 cells: 40 cells per organ bud) to prepare human liver buds (120-150 μm in size).
# The human liver buds prepared in (2) above were cultured in DMSO-containing medium for 7 days and further cultured in HGF-, OSM- and DEX-containing medium for 7 days, followed by infection with HBV. HBV was recovered from culture supernatant of HepG2.2.15 cells which had been prepared by transferring the intact HBV genome (genotype D) into human hepatoma cell line HepG2 by lipofection. The liver buds were infected with approx. 500 copies of HBV per endodermal cell in 4% PEG8000-containing medium and cultured for about 30 days.
# (5) Culture supernatants of human liver buds and human iPS-cell derived hepatocytes were recovered at days 10, 20 and 30 post HBV infection, followed by measurement of HBV DNA. (6) Human liver buds and human iPS-cell derived hepatocytes were recovered at days 10, 20 and 30 post HBV infection, followed by measurement of HBV 3.5k RNA. (7) The inside of human liver buds was immunostained with HBc antibody at days 10, 20 and 30 post HBV infection. (8) Human primary hepatocytes (PXB cells; Phoenix Bio) were infected with the culture supernatant of human liver buds at day 20 post HBV infection. (9) Human liver buds and human iPS-cell derived hepatocytes were recovered at day 20 post HBV infection, followed by measurement of covalently closed circular DNA (cccDNA). (10) Human liver buds at day 10 post HBV infection and non-HBV-infected human liver buds in the corresponding period were fixed with paraformaldehyde and glutaraldehyde, and electron micrographs were taken. (11) Human liver buds were infected with HBV (5,000 copies per cell). […] Intracellular HBV 3.5k RNA and HBV DNA in culture supernatant were measured.
compound,measurement,setting,value
"C=C1[C@H](CO)[C@@H](O)C[C@@H]1n1cnc2c(=O)[nH]c(N)nc21 [ETV, entecavir, reference compound]",infection of human liver bud with HBV,entecavir,inhibited
interferon α [IFN-α],infection of human liver bud with HBV,interferon α 1000 U/ml,inhibited
interferon γ [IFN-γ],infection of human liver bud with HBV,interferon γ 1000 U/ml,inhibited
